Assay results as given in PMC10275482 (ACS Omega, 2023).
Where two headings read alike, the source gives them in different places.

Experiments:
[1] = test system: PL^pro; settings: read-out: PL^pro IC50; cited from earlier work
[2] = test system: SARS-CoV-2; settings: read-out: A549-ACE2 IC50; A549-ACE2 cells; cited from earlier work
[3] = test system: SARS-CoV-2 (isolate USA WA1/2020); assay: microbe, parasite or virus in culture; assay type: cell-based; settings: Severe acute respiratory syndrome coronavirus 2, Calu-3, 48 h, read-out: IC50 (infection)
[4] = test system: Calu-3 cells
[5] = in vitro; settings: human
[6] = target: SARS-Cov-2 PL^pro (Severe acute respiratory syndrome coronavirus 2, UniProt P0DTD1); assay: biochemical
[7] = test system: SARS-CoV-2; settings: Vero cells, cited from earlier work
[8] = test system: SARS-CoV-2; settings: cited from earlier work
[9] = test system: SARS-CoV-2; settings: cited from earlier work; for EC50: read-out: EC50 in Vero cells
[10] = target: SARS-Cov-2 M^pro (Severe acute respiratory syndrome coronavirus 2, UniProt P0DTD1); assay: biochemical

COc1ccc2nc3cc(Cl)ccc3c(Nc3cc(CN4CCCC4)c(O)c(CN4CCCC4)c3)c2n1 [pyronaridine tetraphosphate]
IC50 [1]: 1.8 µM
IC50 [2]: 0.23 µM

C=CC(=O)Nc1cccc(Oc2nc(Nc3ccc(N4CCN(C)CC4)cc3)nc3ccsc23)c1 [olmutinib]
IC50 [3]: 9.76 µM
cell toxicity in Calu-3 cells (in words) [4]: demonstrated cell toxicity
CC50 [5]: 12.5 µM
IC50 [6]: 0.54 ± 0.04 µM

CC1(C)CCC2=C(O1)c1ccccc1C(=O)C2=O [β-lapachone]
IC50 [6]: 5.3 ± 0.29 µM

COc1cc(Nc2c(C#N)cnc3cc(OCCCN4CCN(C)CC4)c(OC)cc23)c(Cl)cc1Cl [bosutinib]
IC50 [3]: 5.26 µM
cell toxicity in Calu-3 cells (in words) [4]: demonstrated cell toxicity
CC50 [5]: 6.06 µM
SI (anti-SARS-CoV-2 entry activity) [7]: 7.08
EC50 ([7]; read-out: anti-SARS-CoV-2 entry activity EC50): 2.45 µM
IC50 [6]: 4.23 ± 0.28 µM

C[C@@H](Oc1cc(-c2cnn(C3CCNCC3)c2)cnc1N)c1c(Cl)ccc(F)c1Cl [crizotinib]
IC50 [3]: 16.3 µM
cell toxicity in Calu-3 cells (in words) [4]: demonstrated cell toxicity
CC50 [5]: 5.09 µM
IC50 [6]: 3.81 ± 0.04 µM

C[N+](C)(C)CCOP(=O)(O)OP(=O)([O-])OC[C@H]1O[C@@H](n2ccc(N)nc2=O)[C@H](O)[C@@H]1O [citicoline]
IC50 [6]: 1.35 ± 0.27 µM

CCCCCc1c2c(cc(O)c1C(=O)O)OC(=O)c1c(cc(OC)cc1C(=O)CCCC)O2 [lobaric acid]
IC50 [6]: 10 ± 1.11 µM

COc1cc2ncnc(Nc3ccc(F)c(Cl)c3)c2cc1NC(=O)/C=C/CN1CCCCC1 [dacomitinib]
IC50 ([8]; read-out: IC50 against SARS-CoV-2 in Calu-3 cells): 0.04 µM
IC50 [6]: 3.33 ± 0.06 µM

CC(C)(C)NC(=O)N[C@H](C(=O)N1C[C@H]2[C@@H]([C@H]1C(=O)NC(CC1CCC1)C(=O)C(N)=O)C2(C)C)C(C)(C)C (some centres unmarked) [boceprevir]
EC50 [9]: 1.31 µM

OCCN(CCO)c1nc(N2CCCCC2)c2nc(N(CCO)CCO)nc(N3CCCCC3)c2n1 [dipyridamole]
EC50 [9]: ~0.1 µM

O=C(c1ccc(OCCN2CCCCC2)cc1)c1c(-c2ccc(O)cc2)sc2cc(O)ccc12 [raloxifene]
IC50 [10]: 42.8 ± 6.7 µM
IC50 ([9]; read-out: IC50 against SARS-CoV-2 in Vero cells): 3.9 µM
IC50 ([9]; read-out: IC50 in Vero, Vero cells): 5.9 µM
SI in Calu-3 cells [8]: 2.7
IC50 ([8]; read-out: IC50 in Calu-3 cells): 9 µM
IC50 [6]: 3.28 ± 0.29 µM
